Measurements from US20130324412A1, “N-ALKOXYAMIDES OF 6-(SUBSTITUTED PHENYL)-4-AMINOPICOLINATES AND 2-(SUBSTITUTED PHENYL)-6-AMINO-4-PYRIMIDINECARBOXYLATES AND THEIR USE AS SELECTIVE HERBICIDES FOR CROPS” (DOW AGROSCIENCES LLC, priority 2009, published 2013).

Experiments:
Type in all cases: in vivo
[1] = tested on: wild buckwheat (Polygonum convululus); assay: General postemergence herbicidal activity, wild buckwheat; conditions: post-emergence, 336 h, 70 g ai/ha, postemergence, after 14 d, 0 = no injury, 100 = complete kill, read-out: POLCO % Visual Injury
Procedure, shortened: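 Greenhouse plants at first to second true leaf stage sprayed overhead at 187 L/ha in acetone/DMSO with crop oil concentrate and surfactant, at a high rate plus ½× to 1/16× serial dilutions. Injury rated visually after 14 d against solvent-blank controls, 0 (none) to 100% (complete kill).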

[2] = tested on: lambsquarters (Chenopodium album); assay: Postemergence herbicidal activity in oilseed rape (canola), lambsquarters; parameters: unit: g ai/ha; conditions: oilseed rape (canola) test, visual rating after 21 d, probit analysis, dose to kill or control 80 percent
Procedure: (§1) Seeds of oilseed rape (canola) and the desired weed species were planted in Sun Gro MetroMix® 360 planting mixture, which typically has a pH of 6.0 to 6.8 and an organic matter content of about 30 percent, in plastic pots with a surface area of 95 cm^2. When required to ensure good germination and healthy plants, a fungicide treatment and/or other chemical or physical treatment was applied. The plants were grown for 15-28 d in a greenhouse with an approximate 15-h photoperiod which was maintained at about 23-29° C. during the day and 22-28° C. during the night. Nutrients and water were added on a regular basis and supplemental lighting was provided with overhead metal halide 1000-Watt lamps as necessary. The oilseed rape (canola) plants were utilized for testing when they reached the third or fourth true leaf stage. The weed species were utilized at the fourth true leaf stage.
(§2) A weighed amount, determined by the highest rate to be tested, of each test compound was dissolved in 4 mL of a 97:3 v/v mixture of acetone and DMSO to obtain concentrated stock solutions. […] The concentrated stock solutions obtained were diluted with 20 mL of an aqueous mixture containing acetone, water and Agri-Dex crop oil concentrate, in a 16.7:82.1:1.25 v/v ratio to obtain spray solutions containing the highest application rates. Additional application rates were obtained by serial dilution of 12 mL of the high rate solution into a solution containing 2 mL of 97:3 v/v mixture of acetone and DMSO and 10 mL of an aqueous mixture containing acetone, water and Agri-Dex crop oil concentrate, in a 16.7:82.1:1.25 v/v ratio to obtain ½×, ¼×, ⅛× and 1/16× rates of the high rate. Compound requirements are based upon a 12 mL application volume at a rate of 187 L/ha. Formulated compounds were applied to the plant material with an overhead Mandel track sprayer equipped with 8002E nozzles calibrated to deliver 187 L/ha over an application area of 0.503 m^2 at a spray height of 18 inches (43 cm) above the average plant canopy height. Control plants were sprayed in the same manner with the solvent blank.
(§3) The treated plants and control plants were placed in a greenhouse as described above and watered by sub-irrigation to prevent wash-off of the test compounds. After 21 d, the condition of the test plants as compared with that of the untreated plants was determined visually and scored on a scale of 0 to 100 percent where 0 corresponds to no injury and 100 corresponds to complete kill.
(§4) By applying the well-accepted probit analysis as described by J. Berkson in Journal of the American Statistical Society 1953, 48, 565, and by D. Finney in “Probit Analysis” Cambridge University Press (1952), the above data can be used to calculate GR20 and GR80 values, which are defined as growth reduction factors that correspond to the effective dose of herbicide required to kill or control 20 percent or 80 percent, respectively, of a target plant.

[3] = tested on: purple deadnettle (Lamium purpureum); assay: Postemergence herbicidal activity in oilseed rape (canola), purple deadnettle; parameters: unit not given here; conditions: oilseed rape (canola) test, visual rating after 21 d, probit analysis, dose to kill or control 80 percent
Procedure: as §1, §2, §3, §4

[4] = tested on: winter oilseed rape (canola) (Brassica napus); assay: Postemergence herbicidal activity in oilseed rape (canola), crop; parameters: unit not given here; conditions: visual rating after 21 d, probit analysis, dose to kill or control 20 percent
Procedure: as §1, §2, §3, §4

Row | Compound | pest or weed control at 70 g/ha [1] [%] | CHEAL GR80 [2] | LAMPU GR80 [3] | BRSNW GR20 [4]
1 | COc1c(Cl)ccc(-c2cc(N)c(Cl)c(C(=O)NOCC(C)C)n2)c1F [Compound 1, 4-amino-3-chloro-6-(4-chloro-2-fluoro-3-methoxyphenyl)-N-(2-methylpropoxy)picolinamide] | 100 | <8.75 | <4.38 | >70
2 | CONC(=O)c1nc(-c2ccc(Cl)c(OC)c2F)cc(N)c1Cl [Compound 2, 4-Amino-3-chloro-6-(4-chloro-2-fluoro-3-methoxyphenyl)-N-methoxypicolinamide] | 100 | 22 | <4.38 | >70
